Laboratory results reported in article PMC12362783 (Advanced Science, 2025).

Experiments:
[1] = system: MDA‐MB‐231; test: Cell growth inhibition, CellTiter‐Glo (CTG); type: cell-based; conditions: Homo sapiens, MDA-MB-231, 120 h, read-out: IC50 MDA‐MB‐231; CTG, 5 days, n = 3
Procedure: (§1) All cells were grown in a humidified incubator at 37 °C and 5% CO2.
(§2) […] […] Relative viability was calculated by normalizing the raw luminescence counts of the treated groups to those of the DMSO control groups. IC₅₀ values were calculated using sigmoidal dose‐response curve fitting with GraphPad Prism 9.0 software.

[2] = system: MDA‐MB‐468; test: Cell growth inhibition, CellTiter‐Glo (CTG); type: cell-based; conditions: Homo sapiens, MDA-MB-468, 120 h; CTG, 5 days, n = 3
Procedure: as §1, §2

[3] = system: MDA‐MB‐436; test: Cell growth inhibition, CellTiter‐Glo (CTG); type: cell-based; conditions: Homo sapiens, MDA-MB-436; @5.0 µM; read-out: MDA‐MB‐436 inhibitory rate at certain concentration
Procedure: as §1
Growth viability was determined by the CellTiter‐Glo luminescent viability assay (Promega) 5 days after drug treatment. Cell viability was measured immediately after dosing (Day 0) and after 5 days of incubation using CellTiter‐Glo (CTG, Promega, G7573). Relative viability was calculated by normalizing the raw luminescence counts of the treated groups to those of the DMSO control groups. IC₅₀ values were calculated using sigmoidal dose‐response curve fitting with GraphPad Prism 9.0 software.

[4] = target: PARP1 (Homo sapiens, UniProt P09874); test: PARP enzymatic inhibition ELISA (PARP1); type: biochemical; conditions: for IC50: n = 3, mean ± SD
Procedure: The PARP activity assay was performed by ChemPartner (Shanghai, China). Each well was precoated with histone (final conc.: 100 ng mL^−1) diluted in PBS buffer (contains 10 mmol L^−1 NaH2PO4 and 150 mmol L^−1 NaCl, pH 7.4) by incubation at 4 °C overnight. […] The reaction was initiated by the addition of 10 µL of PARP (final conc.: 0.007 nM/well) at room temperature for 60 min. Add 20 µL of anti‐Poly/Mono‐ADP Ribose Rabbit mAb. Incubate for 1.5 h at room temperature and wash the plate three times using PBST buffer. […] Incubate for 1 h at room temperature and wash the plate three times using PBST buffer. Add 25 µL Femto‐ECL Substrate A and Femto‐ECL Substrate B (1:1) mix. Immediately read chemiluminescence on Envision (Revvity, USA).

[5] = target: T1, ATR (Homo sapiens, UniProt Q13535); test: ATR kinase inhibition, Mobility Shift Assay; type: biochemical; conditions: n = 3, mean ± SD
T1 construct: purchased Eurofins 14-953
Procedure: The in vitro ATR kinase inhibitory activities were determined by ChemPartner Co., Ltd. (Shanghai, China) using the Mobility Shift Assay. The tested compound was dissolved with DMSO and diluted to 1000/3 × of the final desired highest inhibitor concentration in the reaction. […] The assay wells were incubated at 28 °C for 4 h.

Sequence of PARP1 (P09874 whole entry): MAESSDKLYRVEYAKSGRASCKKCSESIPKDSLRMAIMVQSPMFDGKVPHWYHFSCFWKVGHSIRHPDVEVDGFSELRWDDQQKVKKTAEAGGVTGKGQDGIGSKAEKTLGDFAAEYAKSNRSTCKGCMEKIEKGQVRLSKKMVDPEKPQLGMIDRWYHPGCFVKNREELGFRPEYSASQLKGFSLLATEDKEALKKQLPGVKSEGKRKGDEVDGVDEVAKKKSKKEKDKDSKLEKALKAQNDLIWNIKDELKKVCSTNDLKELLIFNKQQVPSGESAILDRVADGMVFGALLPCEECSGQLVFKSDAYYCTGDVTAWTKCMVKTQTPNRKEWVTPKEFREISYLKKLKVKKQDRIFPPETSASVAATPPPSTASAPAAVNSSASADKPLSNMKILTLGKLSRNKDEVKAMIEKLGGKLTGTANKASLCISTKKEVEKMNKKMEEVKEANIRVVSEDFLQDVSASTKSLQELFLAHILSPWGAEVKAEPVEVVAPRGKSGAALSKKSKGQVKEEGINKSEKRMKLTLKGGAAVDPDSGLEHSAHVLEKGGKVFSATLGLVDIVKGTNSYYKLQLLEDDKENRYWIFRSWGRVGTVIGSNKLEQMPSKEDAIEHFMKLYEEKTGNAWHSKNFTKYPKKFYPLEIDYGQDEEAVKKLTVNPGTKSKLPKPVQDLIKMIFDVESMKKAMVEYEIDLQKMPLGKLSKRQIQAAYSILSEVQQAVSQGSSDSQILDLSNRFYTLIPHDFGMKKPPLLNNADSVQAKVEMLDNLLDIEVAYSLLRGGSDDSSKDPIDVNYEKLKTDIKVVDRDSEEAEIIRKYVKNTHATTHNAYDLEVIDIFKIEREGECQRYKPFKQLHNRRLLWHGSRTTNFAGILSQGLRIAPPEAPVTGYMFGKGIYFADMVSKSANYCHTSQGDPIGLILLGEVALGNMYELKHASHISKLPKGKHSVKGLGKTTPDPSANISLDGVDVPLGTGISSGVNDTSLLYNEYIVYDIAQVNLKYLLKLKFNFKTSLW
T1 sequence (Q13535 whole entry): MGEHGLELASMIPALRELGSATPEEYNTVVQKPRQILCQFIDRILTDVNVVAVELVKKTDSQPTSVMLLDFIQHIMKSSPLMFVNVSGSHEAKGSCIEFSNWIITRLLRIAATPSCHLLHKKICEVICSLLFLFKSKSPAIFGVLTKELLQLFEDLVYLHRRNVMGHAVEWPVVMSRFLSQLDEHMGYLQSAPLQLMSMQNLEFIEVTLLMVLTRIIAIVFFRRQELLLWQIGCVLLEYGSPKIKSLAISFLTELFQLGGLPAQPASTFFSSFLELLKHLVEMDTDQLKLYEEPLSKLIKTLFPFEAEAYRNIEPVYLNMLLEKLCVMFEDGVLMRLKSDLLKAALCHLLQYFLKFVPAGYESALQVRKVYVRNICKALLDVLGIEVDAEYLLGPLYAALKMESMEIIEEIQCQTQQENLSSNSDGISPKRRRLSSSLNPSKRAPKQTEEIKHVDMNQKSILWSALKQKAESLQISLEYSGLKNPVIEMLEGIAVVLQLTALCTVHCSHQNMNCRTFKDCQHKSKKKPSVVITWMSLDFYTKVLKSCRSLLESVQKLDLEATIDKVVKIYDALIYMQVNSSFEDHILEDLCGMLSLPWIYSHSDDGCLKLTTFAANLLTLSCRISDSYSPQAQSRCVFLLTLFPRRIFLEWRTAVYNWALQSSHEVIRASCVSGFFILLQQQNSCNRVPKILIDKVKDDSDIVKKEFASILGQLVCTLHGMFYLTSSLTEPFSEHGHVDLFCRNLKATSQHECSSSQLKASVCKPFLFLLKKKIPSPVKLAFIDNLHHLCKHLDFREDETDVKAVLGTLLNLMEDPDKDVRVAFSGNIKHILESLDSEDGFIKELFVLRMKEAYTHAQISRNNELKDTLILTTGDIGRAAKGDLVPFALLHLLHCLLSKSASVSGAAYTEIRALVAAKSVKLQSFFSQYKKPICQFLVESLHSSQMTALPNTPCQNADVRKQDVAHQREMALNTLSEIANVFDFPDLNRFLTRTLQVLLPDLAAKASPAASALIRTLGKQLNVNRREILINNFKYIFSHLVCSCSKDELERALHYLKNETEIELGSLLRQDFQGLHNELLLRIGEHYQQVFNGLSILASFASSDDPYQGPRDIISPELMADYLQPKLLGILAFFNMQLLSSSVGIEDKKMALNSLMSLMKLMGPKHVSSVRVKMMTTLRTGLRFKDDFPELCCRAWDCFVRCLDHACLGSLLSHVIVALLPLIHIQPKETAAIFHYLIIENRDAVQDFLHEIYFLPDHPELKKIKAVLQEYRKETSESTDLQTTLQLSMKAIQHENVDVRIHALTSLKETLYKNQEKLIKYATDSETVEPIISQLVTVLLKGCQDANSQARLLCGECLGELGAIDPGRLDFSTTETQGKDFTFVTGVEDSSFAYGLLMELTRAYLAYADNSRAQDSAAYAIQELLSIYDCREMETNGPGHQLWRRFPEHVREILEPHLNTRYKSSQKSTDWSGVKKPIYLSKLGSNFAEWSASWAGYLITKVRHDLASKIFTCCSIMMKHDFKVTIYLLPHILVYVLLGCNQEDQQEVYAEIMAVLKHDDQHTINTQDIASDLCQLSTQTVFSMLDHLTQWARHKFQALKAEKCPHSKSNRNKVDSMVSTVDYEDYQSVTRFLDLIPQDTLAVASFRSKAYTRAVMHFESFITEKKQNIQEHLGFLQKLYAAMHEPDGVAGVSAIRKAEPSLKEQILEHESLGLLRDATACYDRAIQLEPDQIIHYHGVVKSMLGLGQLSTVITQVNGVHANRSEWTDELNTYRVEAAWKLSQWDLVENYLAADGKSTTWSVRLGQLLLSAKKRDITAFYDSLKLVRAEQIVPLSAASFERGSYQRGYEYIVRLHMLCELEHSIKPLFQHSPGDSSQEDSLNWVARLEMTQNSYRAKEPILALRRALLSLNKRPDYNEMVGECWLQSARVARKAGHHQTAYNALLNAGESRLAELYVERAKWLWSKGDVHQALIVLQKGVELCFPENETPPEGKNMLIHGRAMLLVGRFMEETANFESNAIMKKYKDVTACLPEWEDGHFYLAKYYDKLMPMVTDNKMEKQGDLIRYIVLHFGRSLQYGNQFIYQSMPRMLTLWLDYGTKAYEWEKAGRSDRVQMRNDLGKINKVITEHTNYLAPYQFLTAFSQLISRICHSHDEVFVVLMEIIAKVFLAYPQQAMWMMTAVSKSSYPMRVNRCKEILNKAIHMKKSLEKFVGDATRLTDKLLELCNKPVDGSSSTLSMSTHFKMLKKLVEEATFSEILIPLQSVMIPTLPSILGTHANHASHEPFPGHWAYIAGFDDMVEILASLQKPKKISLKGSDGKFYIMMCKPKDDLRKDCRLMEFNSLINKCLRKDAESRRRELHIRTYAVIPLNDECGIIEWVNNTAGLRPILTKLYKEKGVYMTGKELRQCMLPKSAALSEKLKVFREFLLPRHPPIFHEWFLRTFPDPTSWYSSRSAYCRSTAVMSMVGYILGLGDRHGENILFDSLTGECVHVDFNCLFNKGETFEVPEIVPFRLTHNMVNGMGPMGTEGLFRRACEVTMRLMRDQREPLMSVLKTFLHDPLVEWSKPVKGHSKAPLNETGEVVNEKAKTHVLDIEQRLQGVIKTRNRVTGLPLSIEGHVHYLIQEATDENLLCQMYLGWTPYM
T1 sequence (Q8WXE1 whole entry partner): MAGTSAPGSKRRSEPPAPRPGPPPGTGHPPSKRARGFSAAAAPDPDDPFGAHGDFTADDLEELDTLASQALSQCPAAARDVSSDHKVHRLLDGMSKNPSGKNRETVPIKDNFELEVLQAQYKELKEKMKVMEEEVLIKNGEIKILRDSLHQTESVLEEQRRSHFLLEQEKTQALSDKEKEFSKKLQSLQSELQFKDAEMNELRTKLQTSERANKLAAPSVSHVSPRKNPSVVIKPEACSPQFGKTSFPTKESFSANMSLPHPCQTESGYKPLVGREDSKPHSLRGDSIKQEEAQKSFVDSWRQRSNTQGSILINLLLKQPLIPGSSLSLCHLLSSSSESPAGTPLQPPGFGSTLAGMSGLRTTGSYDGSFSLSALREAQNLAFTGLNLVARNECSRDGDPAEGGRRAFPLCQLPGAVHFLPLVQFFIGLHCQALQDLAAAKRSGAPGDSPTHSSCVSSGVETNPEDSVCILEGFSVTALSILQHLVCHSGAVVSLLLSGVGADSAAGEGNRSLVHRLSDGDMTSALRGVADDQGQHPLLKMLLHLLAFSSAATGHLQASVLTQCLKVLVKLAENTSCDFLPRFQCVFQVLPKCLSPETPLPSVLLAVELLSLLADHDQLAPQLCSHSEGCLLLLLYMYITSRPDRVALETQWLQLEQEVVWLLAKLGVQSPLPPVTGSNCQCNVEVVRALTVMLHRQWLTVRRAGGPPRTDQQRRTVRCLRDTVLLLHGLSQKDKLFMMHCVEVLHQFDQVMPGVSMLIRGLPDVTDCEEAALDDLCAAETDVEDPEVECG

For C[C@@H]1COCCN1c1cc(C2(N)CC2)nc(-c2ccnc3[nH]ccc23)n1 [Compound 23], the IC50 [1] was 40700 ± 1360 nM, the IC50 [2] was greater than 50000 nM and the inhibition at 5 µM [3] was 20.5%.

C[C@@H]1COCCN1c1cc(CN)nc(-c2ccnc3[nH]ccc23)n1 [Compound 28] showed an IC50 [1] greater than 50000 nM, an IC50 [2] of 40800 ± 4450 nM and an inhibition at 5 µM [3] of 21.4%.

Work on C[C@@H]1COCCN1c1cc(C2(NC(=O)CNC(=O)c3cc(Cc4n[nH]c(=O)c5ccccc45)ccc3F)CC2)nc(-c2ccnc3[nH]ccc23)n1 [Compound A2, (R)‐2‐fluoro‐N‐(2‐((1‐(6‐(3‐methylmorpholino)‐2‐(1H‐pyrrolo [2,3‐b]pyridin‐4‐yl)pyrimidin‐4‐yl)cyclopropyl)amino)‐2‐oxoethyl)‐5‐((4‐oxo‐3,4‐dihydrophthalazin‐1‐yl)methyl)benzamide] yielded an IC50 [1] of 28400 ± 1650 nM, an IC50 [2] greater than 50000 nM and an IC50 [4] of 12 ± 2.8 nM. For the same molecule, the IC50 [5] was 118 ± 14 nM.

Work on C[C@@H]1COCCN1c1cc(C2(NC(=O)CCNC(=O)c3cc(Cc4n[nH]c(=O)c5ccccc45)ccc3F)CC2)nc(-c2ccnc3[nH]ccc23)n1 [Compound A3, (R)‐2‐fluoro‐N‐(3‐((1‐(6‐(3‐methylmorpholino)‐2‐(1H‐pyrrolo [2,3‐b]pyridin‐4‐yl)pyrimidin‐4‐yl)cyclopropyl)amino)‐3‐oxopropyl)‐5‐((4‐oxo‐3,4‐dihydrophthalazin‐1‐yl)methyl)benzamide] yielded an IC50 [1] greater than 50000 nM, an IC50 [2] of 27300 ± 2340 nM and an inhibition at 0.02 µM ([4]; @ 20 nM, read-out: PARP1 inhibitory rate at certain concentration) of 31.8 ± 2.4%. The IC50 [5] was greater than 500 nM.

C[C@@H]1COCCN1c1cc(C2(NC(=O)CCCNC(=O)c3cc(Cc4n[nH]c(=O)c5ccccc45)ccc3F)CC2)nc(-c2ccnc3[nH]ccc23)n1 [Compound A4, (R)‐2‐fluoro‐N‐(4‐((1‐(6‐(3‐methylmorpholino)‐2‐(1H‐pyrrolo[2,3‐b]pyridin‐4‐yl)pyrimidin‐4‐yl)cyclopropyl)amino)‐4‐oxobutyl)‐5‐((4‐oxo‐3,4‐dihydrophthalazin‐1‐yl)methyl)benzamide] was tested, and the IC50 [1] was greater than 50000 nM, the IC50 [2] was 3080 ± 80 nM and the IC50 [4] was 3.4 nM. The IC50 [5] was greater than 500 nM.

C[C@@H]1COCCN1c1cc(C2(NS(=O)(=O)c3ccc(C(=O)N4CCN(C(=O)c5cc(Cc6n[nH]c(=O)c7ccccc67)ccc5F)CC4)cc3)CC2)nc(-c2ccnc3[nH]ccc23)n1 [Compound A8, (R)‐4‐(4‐(2‐fluoro‐5‐((4‐oxo‐3,4‐dihydrophthalazin‐1‐yl)methyl)benzoyl)piperazine‐1‐carbonyl)‐N‐(1‐(6‐(3‐methylmorpholino)‐2‐(1H‐pyrrolo[2,3‐b]pyridin‐4‐yl)pyrimidin‐4‐yl)cyclopropyl)benzenesulfonamide] gave an IC50 [1] greater than 50000 nM, an IC50 [2] of 620 ± 60 nM and an IC50 [4] of 0.75 ± 0.27 nM. It also gave an IC50 [5] of 1320 ± 189 nM.

For C[C@@H]1COCCN1c1cc(C2(NC(=O)c3ccc(C(=O)N4CCN(C(=O)c5cc(Cc6n[nH]c(=O)c7ccccc67)ccc5F)CC4)nc3)CC2)nc(-c2ccnc3[nH]ccc23)n1 [Compound A9, (R)‐6‐(4‐(2‐fluoro‐5‐((4‐oxo‐3,4‐dihydrophthalazin‐1‐yl)methyl)benzoyl)piperazine‐1‐carbonyl)‐N‐(1‐(6‐(3‐methylmorpholino)‐2‐(1H‐pyrrolo[2,3‐b]pyridin‐4‐yl)pyrimidin‐4‐yl)cyclopropyl)nicotinamide], the IC50 [1] was greater than 50000 nM, the IC50 [2] was 750 ± 160 nM and the IC50 [4] was 0.6 ± 0.06 nM. The IC50 [5] was 32 ± 9.3 nM.

Work on C[C@@H]1COCCN1c1cc(C2(NC(=O)c3ccc(CN4CCN(C(=O)c5cc(Cc6n[nH]c(=O)c7ccccc67)ccc5F)CC4)cc3)CC2)nc(-c2ccnc3[nH]ccc23)n1 [Compound A10, (R)‐4‐((4‐(2‐fluoro‐5‐((4‐oxo‐3,4‐dihydrophthalazin‐1‐yl)methyl)benzoyl)piperazin‐1‐yl)methyl)‐N‐(1‐(6‐(3‐methylmorpholino)‐2‐(1H‐pyrrolo[2,3‐b]pyridin‐4‐yl)pyrimidin‐4‐yl)cyclopropyl)benzamide] yielded an IC50 [1] greater than 50000 nM, an IC50 [2] greater than 50000 nM and an IC50 [4] of 19.3 ± 2.9 nM. It also gave an IC50 [5] of 185 ± 16.3 nM.

With C[C@@H]1COCCN1c1cc(C2(NC(=O)c3ccc(N4CCN(C(=O)c5cc(Cc6n[nH]c(=O)c7ccccc67)ccc5F)CC4)cc3)CC2)nc(-c2ccnc3[nH]ccc23)n1 [Compound A11, (R)‐4‐(4‐(2‐fluoro‐5‐((4‐oxo‐3,4‐dihydrophthalazin‐1‐yl)methyl)benzoyl)piperazin‐1‐yl)‐N‐(1‐(6‐(3‐methylmorpholino)‐2‐(1H‐pyrrolo[2,3‐b]pyridin‐4‐yl)pyrimidin‐4‐yl)cyclopropyl)benzamide] the IC50 [1] was greater than 50000 nM, the IC50 [2] was 570 ± 20 nM and the IC50 [4] was 2.3 ± 0.5 nM. It also gave an IC50 [5] of 292 ± 13.9 nM.

Work on C[C@@H]1COCCN1c1cc(C2(NC(=O)c3cnc(N4CCN(C(=O)c5cc(Cc6n[nH]c(=O)c7ccccc67)ccc5F)CC4)nc3)CC2)nc(-c2ccnc3[nH]ccc23)n1 [Compound A12, (R)‐2‐(4‐(2‐fluoro‐5‐((4‐oxo‐3,4‐dihydrophthalazin‐1‐yl)methyl)benzoyl)piperazin‐1‐yl)‐N‐(1‐(6‐(3‐methylmorpholino)‐2‐(1H‐pyrrolo[2,3‐b]pyridin‐4‐yl)pyrimidin‐4‐yl)cyclopropyl)pyrimidine‐5‐carboxamide] yielded an IC50 [1] greater than 50000 nM, an IC50 [2] of 240 ± 10 nM and an IC50 [4] of 1.7 ± 0.2 nM. It also gave an IC50 [5] of 105 ± 7.2 nM.

C[C@@H]1COCCN1c1cc(CNS(=O)(=O)c2ccc(C(=O)N3CCN(C(=O)c4cc(Cc5n[nH]c(=O)c6ccccc56)ccc4F)CC3)cc2)nc(-c2ccnc3[nH]ccc23)n1 [Compound B9, (R)‐4‐(4‐(2‐fluoro‐5‐((4‐oxo‐3,4‐dihydrophthalazin‐1‐yl)methyl)benzoyl)piperazine‐1‐carbonyl)‐N‐((6‐(3‐methylmorpholino)‐2‐(1H‐pyrrolo[2,3‐b]pyridin‐4‐yl)pyrimidin‐4‐yl)methyl) benzenesulfonamide] showed an IC50 [1] greater than 50000 nM, an IC50 [2] of 6880 ± 630 nM and an IC50 [4] of 0.64 ± 0.21 nM. It also gave an IC50 [5] of 205 ± 13.1 nM.

Molecule C[C@@H]1COCCN1c1cc(CNC(=O)c2ccc(C(=O)N3CCN(C(=O)c4cc(Cc5n[nH]c(=O)c6ccccc56)ccc4F)CC3)nc2)nc(-c2ccnc3[nH]ccc23)n1 [Compound B10, (R)‐6‐(4‐(2‐fluoro‐5‐((4‐oxo‐3,4‐dihydrophthalazin‐1‐yl)methyl)benzoyl)piperazine‐1‐carbonyl)‐N‐((6‐(3‐methylmorpholino)‐2‐(1H‐pyrrolo[2,3‐b]pyridin‐4‐yl)pyrimidin‐4‐yl)methyl) nicotinamide] has an IC50 [1] greater than 50000 nM, an IC50 [2] of 1700 ± 350 nM and an IC50 [4] of 0.61 ± 0.15 nM. The IC50 [5] was 19 ± 1.2 nM.

Molecule C[C@@H]1COCCN1c1cc(CNC(=O)c2ccc(C(=O)N3CCN(C(=O)c4cc(Cc5n[nH]c(=O)c6ccccc56)ccc4F)CC3)cn2)nc(-c2ccnc3[nH]ccc23)n1 [Compound B11, (R)‐5‐(4‐(2‐fluoro‐5‐((4‐oxo‐3,4‐dihydrophthalazin‐1‐yl)methyl)benzoyl)piperazine‐1‐carbonyl)‐N‐((6‐(3‐methylmorpholino)‐2‐(1H‐pyrrolo[2,3‐b]pyridin‐4‐yl)pyrimidin‐4‐yl)methyl) picolinamide] has an IC50 [1] greater than 50000 nM, an IC50 [2] of 480 ± 30 nM and an IC50 [4] of 1 ± 0.13 nM. The IC50 [5] was 31.1 ± 4.7 nM.

Molecule C[C@@H]1COCCN1c1cc(CNC(=O)c2ccc(CN3CCN(C(=O)c4cc(Cc5n[nH]c(=O)c6ccccc56)ccc4F)CC3)cc2)nc(-c2ccnc3[nH]ccc23)n1 [Compound B12, (R)‐4‐((4‐(2‐fluoro‐5‐((4‐oxo‐3,4‐dihydrophthalazin‐1‐yl)methyl)benzoyl)piperazin‐1‐yl)methyl)‐N‐((6‐(3‐methylmorpholino)‐2‐(1H‐pyrrolo[2,3‐b]pyridin‐4‐yl)pyrimidin‐4‐yl)methyl)benzamide] has an IC50 [1] greater than 50000 nM, an IC50 [2] of 2830 ± 60 nM and an IC50 [4] of 2 ± 0.3 nM. It also gave an IC50 [5] of 37 ± 4.2 nM.

C[C@@H]1COCCN1c1cc(CNC(=O)c2ccc(N3CCN(C(=O)c4cc(Cc5n[nH]c(=O)c6ccccc56)ccc4F)CC3)cc2)nc(-c2ccnc3[nH]ccc23)n1 [Compound B13, (R)‐4‐(4‐(2‐fluoro‐5‐((4‐oxo‐3,4‐dihydrophthalazin‐1‐yl)methyl)benzoyl)piperazin‐1‐yl)‐N‐((6‐(3‐methylmorpholino)‐2‐(1H‐pyrrolo[2,3‐b]pyridin‐4‐yl)pyrimidin‐4‐yl)methyl)benzamide] was tested, and the IC50 [1] was greater than 50000 nM, the IC50 [2] was 990 ± 60 nM and the IC50 [4] was 1.3 ± 0.6 nM. The IC50 [5] was 22 ± 1.7 nM.

Molecule C[C@@H]1COCCN1c1cc(CNC(=O)c2cnc(N3CCN(C(=O)c4cc(Cc5n[nH]c(=O)c6ccccc56)ccc4F)CC3)nc2)nc(-c2ccnc3[nH]ccc23)n1 [Compound B14, (R)‐2‐(4‐(2‐fluoro‐5‐((4‐oxo‐3,4‐dihydrophthalazin‐1‐yl)methyl)benzoyl)piperazin‐1‐yl)‐N‐((6‐(3‐methylmorpholino)‐2‐(1H‐pyrrolo[2,3‐b]pyridin‐4‐yl)pyrimidin‐4‐yl)methyl)pyramidine‐5‐carboxamide] has an IC50 [1] greater than 50000 nM, an IC50 [2] of 90 ± 10 nM and an IC50 [4] of 1.2 ± 0.4 nM. For the same molecule, the IC50 [5] was 23 ± 2.1 nM.
